Columns and labels:
Assay type in all cases: in vivo
Kochia (Kochia scoparia) [1] = experiment: Test A preemergence; conditions: Preemergence; for Plant response rating, Kochia: 125 g ai/ha, visual injury after approximately 10 d, 0 to 100 scale where 0 is no effect and 100 is complete control; for Kochia plant response rating (0 to 100 scale, 0 is no effect, 100 is complete control): 500 g ai/ha, visual injury approx. 10 d
Description: (§1) Seeds of plant species selected from barnyardgrass (Echinochloa crus-galli), Kochia (Kochia scoparia), ragweed (common ragweed, Ambrosia elatior), ryegrass, Italian (Italian ryegrass, Lolium multiflorum), crabgrass, large (Digitaria sanguinalis), giant foxtail (Setaria faberii), green foxtail (Setaria viridis), morningglory (Ipomoea spp.), pigweed (Amaranthus retroflexus), velvetleaf (Abutilon theophrasti), wheat (Triticum aestivum), and corn (Zea mays) were planted into a blend of loam soil and sand and treated preemergence with a directed soil spray using test chemicals formulated in anon-phytotoxic solvent mixture which included a surfactant.
(§2) At the same time, plants selected from these crop and weed species and also blackgrass (Alopecurus myosuroides), and Galium (catchweed bedstraw, Galium aparine) were planted in pots containing the same blend of loam soil and sand and treated with postemergence applications of test chemicals formulated in the same manner. Plants ranged in height from 2 to 10 cm and were in the one- to two-leaf stage for the postemergence treatment. Treated plants and untreated controls were maintained in a greenhouse for approximately 10 d, after which time all treated plants were compared to untreated controls and visually evaluated for injury. Plant response ratings, summarized in Table A, are based on a 0 to 100 scale where 0 is no effect and 100 is complete control. A dash (-) response means no test result.

[2] = test system: barnyardgrass (Echinochloa crus-galli); experiment: Test A preemergence; conditions: Preemergence; for Plant response rating, Barnyardgrass: 125 g ai/ha, visual injury after approximately 10 d, 0 to 100 scale where 0 is no effect and 100 is complete control; for Barnyardgrass plant response rating (0 to 100 scale, 0 is no effect, 100 is complete control): 500 g ai/ha, visual injury approx. 10 d
Description: as §1, §2

[3] = test system: giant foxtail (Setaria faberii); experiment: Test A preemergence; conditions: Preemergence; for Plant response rating, Foxtail, Giant: 125 g ai/ha, visual injury after approximately 10 d, 0 to 100 scale where 0 is no effect and 100 is complete control; for Foxtail, Giant plant response rating (0 to 100 scale, 0 is no effect, 100 is complete control): 500 g ai/ha, visual injury approx. 10 d
Description: as §1, §2

[4] = test system: pigweed (Amaranthus retroflexus); experiment: Test A preemergence; conditions: Preemergence; for Plant response rating, Pigweed: 125 g ai/ha, visual injury after approximately 10 d, 0 to 100 scale where 0 is no effect and 100 is complete control; for Pigweed plant response rating (0 to 100 scale, 0 is no effect, 100 is complete control): 500 g ai/ha, visual injury approx. 10 d
Description: as §1, §2

[5] = test system: ragweed (common ragweed, Ambrosia elatior); experiment: Test A preemergence; conditions: Preemergence; for Plant response rating, Ragweed: 125 g ai/ha, visual injury after approximately 10 d, 0 to 100 scale where 0 is no effect and 100 is complete control; for Ragweed plant response rating (0 to 100 scale, 0 is no effect, 100 is complete control): 500 g ai/ha, visual injury approx. 10 d
Description: as §1, §2

[6] = test system: ryegrass, Italian (Italian ryegrass, Lolium multiflorum); experiment: Test A preemergence; conditions: Preemergence; for Plant response rating, Ryegrass, Italian: 125 g ai/ha, visual injury after approximately 10 d, 0 to 100 scale where 0 is no effect and 100 is complete control; for Ryegrass, Italian plant response rating (0 to 100 scale, 0 is no effect, 100 is complete control): 500 g ai/ha, visual injury approx. 10 d
Description: as §1, §2

[7] = test system: Galium (catchweed bedstraw, Galium aparine); experiment: Test A postemergence
Description: as §1, §2

Kochia (Kochia scoparia) [8] = experiment: Test A postemergence
Description: as §1, §2

[9] = test system: barnyardgrass (Echinochloa crus-galli); experiment: Test A postemergence
Description: as §1, §2

[10] = test system: blackgrass (Alopecurus myosuroides); experiment: Test A postemergence
Description: as §1, §2

corn (Zea mays) = experiment: Test A postemergence
Description: as §1, §2

[11] = test system: giant foxtail (Setaria faberii); experiment: Test A postemergence
Description: as §1, §2

[12] = test system: pigweed (Amaranthus retroflexus); experiment: Test A postemergence
Description: as §1, §2

[13] = test system: ragweed (common ragweed, Ambrosia elatior); experiment: Test A postemergence
Description: as §1, §2

[14] = test system: ryegrass, Italian (Italian ryegrass, Lolium multiflorum); experiment: Test A postemergence
Description: as §1, §2

[15] = test system: wheat (Triticum aestivum); experiment: Test A postemergence
Description: as §1, §2

[16] = 125 g ai/ha, postemergence, visual rating after approx. 10 d, 0 to 100 scale (0 no effect, 100 complete control)
[17] = Postemergence, 500 g ai/ha, 0 to 100 scale where 0 is no effect and 100 is complete control
[18] = 125 g ai/ha, postemergence, visual injury rating on 0 to 100 scale (0 no effect, 100 complete control), approx. 10 d

SMILES	Plant response rating, Kochia (Kochia (Kochia scoparia) [1])	Kochia plant response rating (0 to 100 scale, 0 is no effect, 100 is complete control) (Kochia (Kochia scoparia) [1])	Plant response rating, Barnyardgrass [2]	Barnyardgrass plant response rating (0 to 100 scale, 0 is no effect, 100 is complete control) [2]	Plant response rating, Foxtail, Giant [3]	Foxtail, Giant plant response rating (0 to 100 scale, 0 is no effect, 100 is complete control) [3]	Plant response rating, Pigweed [4]	Pigweed plant response rating (0 to 100 scale, 0 is no effect, 100 is complete control) [4]	Plant response rating, Ragweed [5]	Ragweed plant response rating (0 to 100 scale, 0 is no effect, 100 is complete control) [5]	Plant response rating, Ryegrass, Italian [6]	Ryegrass, Italian plant response rating (0 to 100 scale, 0 is no effect, 100 is complete control) [6]	Plant response rating, Galium [7, 17]	Plant response rating, Kochia (Kochia (Kochia scoparia) [8]; [17])	Plant response rating, Barnyardgrass [9, 17]	Plant response rating, Blackgrass [10, 17]	Plant response rating, Corn (corn (Zea mays); [17])	Plant response rating, Foxtail, Giant [11, 17]	Plant response rating, Pigweed [12, 17]	Plant response rating, Ragweed [13, 17]	further results
CCc1cccc(C2CN(C)C(=O)C2C(=O)Nc2ccccc2S(C)(=O)=O)c1 (stereo not shown) [Compound 569]	60	90	90	100	100	100	50	80	60	70	30	70	60	50	90	80	60	90	50	60	Plant response rating, Galium [7, 16]: 40; Plant response rating, Kochia (Kochia (Kochia scoparia) [8]; [16]): 20; Plant response rating, Barnyardgrass [9, 16]: 90; Plant response rating, Blackgrass [10, 16]: 60; Plant response rating, Corn (corn (Zea mays); [16]): 20; Plant response rating, Foxtail, Giant [11, 16]: 90; Plant response rating, Pigweed [12, 16]: 0; Plant response rating, Ragweed [13, 16]: 30; Plant response rating, Ryegrass, Italian [14, 16]: 40; Plant response rating, Ryegrass, Italian [14, 17]: 60; Plant response rating, Wheat [15, 16]: 30; Plant response rating, Wheat [15, 17]: 70
CN1CC(c2ccc(OC(F)F)cc2)C(C(=O)Nc2cccc(F)c2F)C1=O (stereo not shown) [Compound 562]	70	90	90	90	90	90	90	90	70	80	60	90	70	80	90	70	80	90	80	60	Plant response rating, Galium [7, 16]: 60; Plant response rating, Kochia (Kochia (Kochia scoparia) [8]; [16]): 70; Plant response rating, Barnyardgrass [9, 16]: 90; Plant response rating, Blackgrass [10, 16]: 60; Plant response rating, Corn (corn (Zea mays); [16]): 40; Plant response rating, Foxtail, Giant [11, 16]: 90; Plant response rating, Pigweed [12, 16]: 70; Plant response rating, Ragweed [13, 16]: 50; Plant response rating, Ryegrass, Italian [14, 16]: 70; Plant response rating, Ryegrass, Italian [14, 17]: 80; Plant response rating, Wheat [15, 16]: 50; Plant response rating, Wheat [15, 17]: 80
Cc1ccc(C2CN(C)C(=O)C2C(=O)Nc2ccc(F)cc2F)c(F)c1 (stereo not shown) [Compound 559]	60	80	90	100	90	100	20	50	0	20	0	50	60	70	100	60	30	90	0	0	Plant response rating, Galium [7, 16]: 50; Plant response rating, Kochia (Kochia (Kochia scoparia) [8]; [16]): 30; Plant response rating, Barnyardgrass [9, 16]: 90; Plant response rating, Blackgrass [10, 16]: 20; Plant response rating, Corn (corn (Zea mays); [16]): 0; Plant response rating, Foxtail, Giant [11, 16]: 90; Plant response rating, Pigweed [12, 16]: 0; Plant response rating, Ragweed [13, 16]: 0; Plant response rating, Ryegrass, Italian [14, 16]: 0; Plant response rating, Ryegrass, Italian [14, 17]: 30; Plant response rating, Wheat [15, 16]: 0; Plant response rating, Wheat [15, 17]: 50
O=C1NCC(c2ccc(OC(F)F)cc2)C1C(=O)Nc1cccc(F)c1F (stereo not shown) [Compound 561]	70	90	90	90	90	90	80	90	80	80	0	40	60	80	90	70	60	90	70	40	Plant response rating, Galium [7, 16]: 60; Plant response rating, Kochia (Kochia (Kochia scoparia) [8]; [16]): 70; Plant response rating, Barnyardgrass [9, 16]: 90; Plant response rating, Blackgrass [10, 16]: 50; Plant response rating, Corn (corn (Zea mays); [16]): 10; Plant response rating, Foxtail, Giant [11, 16]: 90; Plant response rating, Pigweed [12, 16]: 60; Plant response rating, Ragweed [13, 16]: 20; Plant response rating, Ryegrass, Italian [14, 16]: 20; Plant response rating, Ryegrass, Italian [14, 17]: 60; Plant response rating, Wheat [15, 16]: 30; Plant response rating, Wheat [15, 17]: 70
O=C1NCC(c2cc(Br)cs2)C1C(=O)Nc1cccc(F)c1F (racemic) [Compound 510]	30	50	60	80	60	70	0	0	30	50	0	10	0	40	70	40	0	30	0	30	Galium plant response rating [7, 18]: 0; Kochia plant response rating (Kochia (Kochia scoparia) [8]; [18]): 0; Barnyardgrass plant response rating [9, 18]: 60; Blackgrass plant response rating [10, 18]: 0; Corn plant response rating (corn (Zea mays); [18]): 0; Foxtail, Giant plant response rating [11, 18]: 10; Pigweed plant response rating [12, 18]: 0; Ragweed plant response rating [13, 18]: 0; Ryegrass, Italian plant response rating [14, 18]: 0; Plant response rating, Ryegrass, Italian [14, 17]: 20; Wheat plant response rating [15, 18]: 0; Plant response rating, Wheat [15, 17]: 0
